# Results: patent US7164024B2, “Benzimidazolone derivatives” (Banyu Pharmaceutical Co., Ltd., priority 2001, dated 2007)
# Tests used:
# [1] = target: T1, muscarinic acetylcholine receptors of human m1 (Homo sapiens, UniProt P11229); assay: Test on inhibition of binding to muscarinic receptors (m1); details: human m1 expressed in CHO cells, 0.2 nM [3H]-N-methylscopolamine, 120 minutes at room temperature
# T1 construct: purchased Receptor Biology, Inc; host or cells: CHO cells
# T1 sequence (P11229 1-460): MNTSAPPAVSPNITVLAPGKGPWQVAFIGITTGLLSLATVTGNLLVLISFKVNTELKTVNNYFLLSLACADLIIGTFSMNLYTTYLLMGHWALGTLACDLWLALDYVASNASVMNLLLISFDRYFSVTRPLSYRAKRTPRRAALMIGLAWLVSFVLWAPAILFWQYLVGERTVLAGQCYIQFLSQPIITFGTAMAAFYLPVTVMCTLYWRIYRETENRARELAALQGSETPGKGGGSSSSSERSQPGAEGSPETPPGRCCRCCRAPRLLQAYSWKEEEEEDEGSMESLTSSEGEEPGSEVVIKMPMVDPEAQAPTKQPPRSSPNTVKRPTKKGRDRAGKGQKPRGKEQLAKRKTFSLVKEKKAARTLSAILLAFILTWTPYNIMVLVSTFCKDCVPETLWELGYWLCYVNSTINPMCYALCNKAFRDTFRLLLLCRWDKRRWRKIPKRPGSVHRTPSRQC
# Experimental: (§1) The test was performed according to a modification of the method of Hargreaves, et al. (Br. J. Pharmacol. 107: 494–501, 1992). Namely, muscarinic acetylcholine receptors of human m1, m2, m3, m4 and m5 expressed in CHO cells (Receptor Biology, Inc.) were incubated with 0.2 nM [^3H]-N-methylscopolamine (82Ci/mmol, New England Nuclear, Inc.) and a test compound, either in 0.5 ml of 50 mM Tris-HCI, 10 mM MgCl2, 1 mM EDTA solution (pH 7.4) (human m1, m3 and m5 samples) or in 0.5 ml of 50 mM tris-HCl, 10 mM MgCl2, 1 mM EDTA, 5000 nM GTPγS solution (pH 7.4) (human m2 and m4 samples) for 120 minutes at room temperature (about 20–25° C.), followed by suction filtration over a glass filter (UniFilter plate-GF/C; Packard). Then the filter was washed four times with 1 ml of ice-cooled Tris-HCI buffer and dried at 50° C. for an hour. After adding a scintillator (Microscinti 0; Packard), the radioactivity of [^3H]-N-methylscopolamine binding to the filter was counted with a microplate scintillation counter (TopCount; Packard). Non-specific receptor binding of [^3H]-N-methylscopolamine was measured by adding 1 μM N-methylscopolamine. According to the method of Cheng and Prusoff (Biochem. Pharmacol. 22: 3099–3108, 1973), the binding affinity of each sample compound of the present invention for muscarinic receptors is expressed by inhibition constant (Ki) which is calculated from the concentration (IC50) of the sample compound which achieves 50% inhibition of binding of [^3H]-N-methylscopolamine, the labeled ligand. Smaller inhibition constant (Ki) represents stronger tendency to bind to muscarinic receptors, i.e., a higher binding inhibitory effect.
# [2] = target: T2, muscarinic acetylcholine receptors of human m5 (Homo sapiens, UniProt P08912); assay: Test on inhibition of binding to muscarinic receptors (m5); details: human m5 expressed in CHO cells, 0.2 nM [3H]-N-methylscopolamine, 120 minutes at room temperature
# T2 construct: purchased Receptor Biology, Inc; host or cells: CHO cells
# T2 sequence (P08912 1-532): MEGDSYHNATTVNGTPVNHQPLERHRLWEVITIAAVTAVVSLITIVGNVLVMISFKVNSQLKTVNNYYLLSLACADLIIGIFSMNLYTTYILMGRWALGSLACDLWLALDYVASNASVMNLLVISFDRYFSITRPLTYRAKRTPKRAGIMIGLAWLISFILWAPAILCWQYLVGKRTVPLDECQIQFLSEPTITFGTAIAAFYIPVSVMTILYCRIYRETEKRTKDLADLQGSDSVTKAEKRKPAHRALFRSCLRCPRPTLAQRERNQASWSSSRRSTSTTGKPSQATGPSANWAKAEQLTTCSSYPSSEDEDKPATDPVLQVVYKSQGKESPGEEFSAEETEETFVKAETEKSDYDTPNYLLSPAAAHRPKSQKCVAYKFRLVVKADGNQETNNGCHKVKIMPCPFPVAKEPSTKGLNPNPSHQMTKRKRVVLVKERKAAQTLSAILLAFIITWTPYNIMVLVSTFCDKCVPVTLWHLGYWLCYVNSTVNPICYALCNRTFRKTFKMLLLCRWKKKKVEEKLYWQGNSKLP
# Experimental: as §1
# [3] = target: T3, muscarinic acetylcholine receptors of human m3 (Homo sapiens, UniProt P20309); assay: Test on inhibition of binding to muscarinic receptors (m3); details: human m3 expressed in CHO cells, 0.2 nM [3H]-N-methylscopolamine, 120 minutes at room temperature
# T3 construct: purchased Receptor Biology, Inc; host or cells: CHO cells
# Experimental: as §1
# [4] = target: T4, muscarinic acetylcholine receptors of human m4 (Homo sapiens, UniProt P08173); assay: Test on inhibition of binding to muscarinic receptors (m4); details: for Ki: human m4 expressed in CHO cells, 0.2 nM [3H]-N-methylscopolamine, 5000 nM GTPγS, 120 minutes at room temperature; for Selectivity (times) m1/m4: ratio of Ki m1 to Ki m4; for Selectivity (times) m2/m4: ratio of Ki m2 to Ki m4; for Selectivity (times) m3/m4: ratio of Ki m3 to Ki m4; for Selectivity (times) m5/m4: ratio of Ki m5 to Ki m4
# T4 construct: purchased Receptor Biology, Inc; host or cells: CHO cells
# T4 sequence (P08173 1-479): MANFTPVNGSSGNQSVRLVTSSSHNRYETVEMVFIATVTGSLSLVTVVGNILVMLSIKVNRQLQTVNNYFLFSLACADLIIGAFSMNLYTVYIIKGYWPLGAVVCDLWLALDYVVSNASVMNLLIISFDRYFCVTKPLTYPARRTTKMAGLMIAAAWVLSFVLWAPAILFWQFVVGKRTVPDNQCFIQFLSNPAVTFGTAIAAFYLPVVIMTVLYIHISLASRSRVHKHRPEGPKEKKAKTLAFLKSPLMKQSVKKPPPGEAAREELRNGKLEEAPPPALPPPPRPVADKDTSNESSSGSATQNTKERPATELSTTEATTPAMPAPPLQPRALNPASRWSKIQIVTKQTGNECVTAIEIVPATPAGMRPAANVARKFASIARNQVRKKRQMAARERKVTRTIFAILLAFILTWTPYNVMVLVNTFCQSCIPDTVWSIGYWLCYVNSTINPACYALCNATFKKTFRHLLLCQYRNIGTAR
# Experimental: as §1
# [5] = target: T5, muscarinic acetylcholine receptors of human m2 (Homo sapiens, UniProt P08172); assay: Test on inhibition of binding to muscarinic receptors (m2); details: human m2 expressed in CHO cells, 0.2 nM [3H]-N-methylscopolamine, 5000 nM GTPγS, 120 minutes at room temperature
# T5 construct: purchased Receptor Biology, Inc; host or cells: CHO cells
# T5 sequence (P08172 1-466): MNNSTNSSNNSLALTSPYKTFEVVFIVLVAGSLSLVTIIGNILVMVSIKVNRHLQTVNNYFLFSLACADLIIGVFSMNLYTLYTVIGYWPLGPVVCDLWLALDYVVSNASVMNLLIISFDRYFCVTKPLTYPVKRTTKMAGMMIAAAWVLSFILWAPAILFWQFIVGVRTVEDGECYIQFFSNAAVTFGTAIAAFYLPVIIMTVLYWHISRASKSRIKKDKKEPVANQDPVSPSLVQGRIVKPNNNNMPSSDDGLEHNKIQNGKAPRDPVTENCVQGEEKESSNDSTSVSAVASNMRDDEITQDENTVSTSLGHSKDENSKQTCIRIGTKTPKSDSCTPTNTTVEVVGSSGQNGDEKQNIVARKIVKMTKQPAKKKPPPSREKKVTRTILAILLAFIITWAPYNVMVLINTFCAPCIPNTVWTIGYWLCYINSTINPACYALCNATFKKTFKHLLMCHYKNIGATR
# Experimental: as §1
# T3 sequence (P20309 whole entry): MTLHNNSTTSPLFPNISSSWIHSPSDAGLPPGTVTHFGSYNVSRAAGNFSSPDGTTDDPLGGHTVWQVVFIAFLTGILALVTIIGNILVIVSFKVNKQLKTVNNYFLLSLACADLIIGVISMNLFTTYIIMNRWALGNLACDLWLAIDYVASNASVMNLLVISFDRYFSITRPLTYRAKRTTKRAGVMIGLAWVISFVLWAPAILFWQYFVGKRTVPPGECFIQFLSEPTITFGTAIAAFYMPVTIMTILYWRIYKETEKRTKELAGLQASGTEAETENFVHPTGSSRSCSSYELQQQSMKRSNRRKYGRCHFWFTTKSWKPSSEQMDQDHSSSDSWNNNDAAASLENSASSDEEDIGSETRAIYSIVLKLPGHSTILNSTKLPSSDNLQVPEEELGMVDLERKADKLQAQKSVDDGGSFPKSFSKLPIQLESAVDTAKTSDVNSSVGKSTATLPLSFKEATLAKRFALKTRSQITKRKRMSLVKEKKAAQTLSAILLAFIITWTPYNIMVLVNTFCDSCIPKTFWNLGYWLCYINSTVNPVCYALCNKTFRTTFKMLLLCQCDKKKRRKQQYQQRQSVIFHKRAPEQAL
Ki [1] [nM],Ki [2] [nM],Ki [3] [nM],Ki [4] [nM],Selectivity (times) m1/m4 [4] [times],Selectivity (times) m2/m4 [4] [times],Selectivity (times) m3/m4 [4] [times],Selectivity (times) m5/m4 [4] [times],Ki [5] [nM],SMILES
22,220,4500,2.3,9.7,11,2000,99,24,"CC(CN1CCC(n2c(=O)[nH]c3ccccc32)CC1)C1CCN(C(=O)c2cccnc2)CC1 (stereo not drawn) [Example 12, 1-[1-[2-[1-(3-Pyridylcarbonyl)piperidin-4-yl]propyl]piperidin-4-yl]-1,3-dihydro-2H-benzimidazol-2-one]"
28,260,7400,4.5,6.1,16,1600,57,73,"O=C(c1cnccn1)N1CCC(CCN2CCC(n3c(=O)[nH]c4ccccc43)CC2)CC1 [Example 4, 1-[1-[2-[1-(Pyrazinylcarbonyl)piperidin-4-yl]ethyl]piperidin-4-yl]-1,3-dihydro-2H-benzimidazol-2-one]"
25,450,1700,1.7,15,19,1000,270,31,"O=C(c1cccnc1)N1CCCC(CCN2CCC(n3c(=O)[nH]c4ccccc43)CC2)CC1 (single isomer, unassigned) [Example 9, (S*)-1-[1-[2-[1-(3-pyridylcarbonyl)perhydroazepin-4-yl]ethyl]piperidin-4-yl]-1,3-dihydro-2H-benzimidazol-2-one]"
